Test results from US20130039956A1, “USE OF NITROCARBOXYLIC ACIDS FOR THE TREATMENT, DIAGNOSIS AND PROPHYLAXIS OF AGGRESSIVE HEALING PATTERNS” (priority 2010, published 2013).

Tests used:
[1] = test system: human umbellical endothelial cells (HUVEC); assay: Adhesion, propagation and growth of endothelial cells on coated polystyrene films; assay type: cell-based; conditions: days 3, 7, 14, compared with native FA
Protocol: Polystyrene scaffolds were prepared and pretreated in the same manner as performed in example 1 by using the same nitrocarboxylic acids as listed in table 1. The film samples were placed in a culture dish containing a gel matrix, in which human umbellical endothelial cells (HUVEC) had been allowed to grow to confluence. The culture medium consisted of 5% FCS, which was replaced every 5 days. Cultivation was performed according to standard conditions. Films were evaluated at days 3, 7, and 14 after careful extraction from the culture dishes, rinsing with saline solution, and staining with methylene blue. Using a reflected light microscope, the films were immediately examined to evaluate the following: Propagation of cells to the film center, cell confluidity, multilayer formation, and cell shape.

[2] = test system: Murine macrophage-like cells RAW 264.7 and murine L929 fibroblasts; assay: Monocyte/fibroblast co-culture on coated surgical suture material; assay type: cell-based; conditions: dip-coated suture material, 24 and 48 hours; compared with native FA
From the text: In order to determine immunoreactions to foreign material and its consequence on fibrogenesis, co-cultures of fibroblasts and monocytes were used. Commercially available suture materials (propylene, polyamide, and silk) were dip-coated with corresponding native and nitrated fatty acids. Untreated suture material served as control. Treated and untreated suture materials were out in small pieces and placed in a 96-well plate.
Murine macrophage-like cells RAW 264.7 and murine L929 fibroblasts were cultured to a population density of 5×10(5) each. Cell suspensions were merged achieving a cellularity of approximately 2.5×10(5) cell/ml of each cell population which were added to the wells. The suture material samples were fully covered by the suspension. Wells were continuously and gently shaken throughout the incubation period.
Supernatants were collected for assays after 24 and 48 hours and analyzed for profibrotic cytokines IL-13, IL-4, and IL-6, TGF-β1, collagen I.

[3] = test system: human corneal fibroblasts; assay: Model for fibrosis induction (3D corneal stroma, TGF-β1); assay type: cell-based; conditions: TGF-β1 over 7 days; compared with native FA
Protocol: Cornea injury may ultimately lead to a scar by way of corneal fibrosis, which is characterized by the presence of myofibroblasts and improper deposition of extracellular matrix components (ECM). An established in vitro model to study the healing response to trauma of corneal stroma was used. The in vitro 3-dimensional (3D) model of a corneal stroma was produced by human corneal fibroblasts stimulated with stable vitamin C which mimics corneal development. TGF-β1 was added to the medium over 7 days. […] There were no morphological changes of the myofibroblasts when treated with nitro fatty acids.

pericardial strips = assay: Cold induced injury in a whole tissue ex-vivo model (pericardium); assay type: cell-based, Wistar rats; conditions: 200 μmol, 10 min, two cooling cycles; compared with native FA
From the text: To determine whether nitrated fatty acids can be used to preserve cells and tissues from cold or cryoinjury, an in vitro model utilizing murine epicardium was established. The experimental set-up should reduce the possibility of ischemia or reperfusion injury to a minimum, but at the same time allow differentiation of the contribution of ischemia/reperfusion injury-triggered cell death, which is known to occur almost exclusively via apoptosis, whereas cell death induced by cold injury almost exclusively results in necrosis.
The pericardial sac was carefully resected in 24 anesthetized Wistar rats (180-270 g) of either sex. Care was taken to grasp the pericardium with a forceps only at the cutting edges and reduce traumatization of the central portions of the pericardium to a minimum. After resection, the cutting edge and the former apex area of the pericardium were dissected, as to obtain flat tissue strips which were placed immediately in the culture medium (DMEM) containing 10% FCS and antibiotics (penicillin, streptomycin). Tissue samples were cultured in an oxygen atmosphere at 18° C. for 2 days. […] Then the pericardial strips were cut into 4 pieces of equal size. One piece was further cultivated at 37° C. without undergoing the cooling cycles, thus, serving as the control. In each of three investigations, one piece was bathed in a solution (0.9% saline and 1% SDS) containing 200 μmol nitro-fatty acid or contained 200 μmol of the corresponding native fatty acid, for 10 min at a temperature of 18° C. One piece of pericardium was bathed in a solution without fatty acids under otherwise identical conditions. All samples were cooled by continuously decreasing from ambient temperature at a rate of 3° C./min to a minimum temperature of […]. After 1 hour, the samples were rewarmed at a rate of 3° C./min by continuously increasing the temperature until a temperature of 18° C., was achieved. Thereafter an identical cooling and rewarming cycle was performed. After the second cooling cycle, the tissue pieces were further cultured in the culture medium for 1 day allowing continuous adaptation to an ambient temperature of 37° C. For analytical preparations the pericardial pieces were out and further processed. A direct TUNEL assay (Roche) was use for quantification of apoptosis, an annexin V/propidium iodide exclusion assay (Roche) was used to quantify the number of necrotic cells, and viability was determined by the WST-8 assay. Furthermore, the LDH release was quantified in the supernatants.
To rule out that cell death has been induced by ischemia or reperfusion (reoxygenation), in one series of experiments, a control sample was incubated with an all-caspase inhibitor (Q-VD-OPH, BioVision, USA) reconstituted in DMSO before the sample was exposed to cold.

[4] = test system: Tracheas of adult Wistar rats; assay: Tissue damage due to barotrauma ex vivo (tracheal rings); assay type: cell-based; conditions: tracheal rings bathed 15 minutes, balloon 4 atm 4 hours; compared with native FA
Protocol: In order to determine the effects of nitrated fatty acids on mechanical trauma to tracheal cells, an ex vivo model was established. Tracheas of adult Wistar rats sacrificed with thiopental given intraabdominally were carefully resected (harvested). Whole (intact) tracheas were cultured in DMEM 10 (Sigma) supplemented with antibiotic/antimycotic drugs for 48 hours at 37° C. Tracheas were cut into five pieces of equal size. One piece was immediately analyzed, two were bathed in 0.9% saline, one was bathed in a solution containing native fatty acid in SDS (1%), and one was bathed in a solution containing nitro fatty acid, respectively, for 15 minutes each. The inner diameters of the tracheal rings were measured. A non-compliant balloon catheter for use in vascular interventions was chosen, so that the nominal balloon diameter was 15-20% larger than that of the trachea. One tracheal ring pretreated with 0.9% saline was left untreated; the other prepared tracheal rings were mounted on the balloon catheter, which was inflated to a pressure of 4 atm thereafter. Balloons were kept inflated for 4 hours, while being positioned in the culture medium. Thereafter, the tracheal rings were further cultivated in separate vials for 24 hours. In a separate set of investigations, sense/antisense ODNs for HO-1 (Invitrogen) directed against the translation initiation codon in the HO-1 cDNA was used to inhibit hemoxydase-1 synthesis. The cells were transfected using the Superfect transfection reagent (Qiagen) before traumatization. In another set of experiments, the HO inhibitor SnPP IX (Porphyrin Products, London, UK) was added to the culture medium 6 hours before traumatization at a dose of 10 micromol.
For analysis, the rings were cut into small strips using a no touch technique. Viability was tested using a MTT assay and apoptosis using a TUNEL assay. Anti-HO-1 antibodies (StressGen, Tebu, Le-Perray-en-Yvelines, France) were measured by Western blot and immunohistochemistry.
Also: key: 0: not superior to native FA (control); +: Superior to native FA; ++: superior to both; +++: outstanding effect.

| Molecule | Relative differences: effect on adhesion, propagation and growth of endothelial cells [1] | Relative effect on profibrotic cytokines and collagen I on suture material [2] | Relative efficacy in model for fibrosis induction [3] | Relative effect on cold induced injury (pericardial strips) | Relative effect on tissue damage due to barotrauma [4] |
| --- | --- | --- | --- | --- | --- |
| 5-nitro-eicosatrienoic acid [compound 4] | + | + |  |  |  |
| 9,10-nitro-cis-oleic acid [compound 10] | ++ | +++ | ++ | + | ++ |
| 9,10-nitro-trans-oleic acid [compound 15] | + | + | + |  | + |
| CCCCCCCC/C=C(/CCCCCCCC(=O)O)[N+](=O)[O-] [compound 1, 9-nitro cis-oleic acid] | ++ | ++ | ++ | ++ | ++ |
| CCCCC/C=C(/C/C=C\C/C=C\C/C=C\C/C=C\CCC(=O)O)[N+](=O)[O-] [compound 5, 16-nitro-all-cis-4,7,10,13,16-docosapentaenoic acid] | ++ | + |  |  |  |
| CC/C=C\C/C=C\C/C(=C/C/C=C\C/C=C\CCCCCC(=O)O)[N+](=O)[O-] [compound 7, 14-nitro-all-cis-7,10,13,16,19-docosapentaenoic acid] | + | + |  |  |  |
| CCCCCCCC/C=C(/CCCCCCCCCCCCCC(=O)O)[N+](=O)[O-] [compound 8, 15-nitro-cis-15-tetracosenoic acid] | + | + | + |  | + |
| CCCCCCCC/C=C(\CCCCCCCC(=O)O)[N+](=O)[O-] [compound 9, 9-nitro-trans-oleic acid] | + | + |  |  |  |
| CCCCC=C(C=CC=CCCCCCCCC(=O)O)[N+](=O)[O-] [compound 11, 13-nitro-octadeca-9,11,13-trienoic acid] | + | 0 | + |  | + |
| CCCCCCCC/C(=C\CCCCCCCC(=O)O)[N+](=O)[O-] [compound 12, 10-nitro-trans-oleic acid] | + | + |  |  |  |
| CCCCCC/C=C(/CCCCCCCC(=O)O)[N+](=O)[O-] [compound 13] | ++ | + |  |  |  |
| CCCCCC=CCC=C(CC=CCC=CCCCC(=O)O)[N+](=O)[O-] [compound 14, 11-nitro-5,8,11,14-eicosatrienoic acid] | + | + | + |  | + |
| CCCCCC/C=C(\CCCCCCCC(=O)O)[N+](=O)[O-] [compound 16, 9-nitro-9-trans-hexadecenoic acid] | + | + |  |  |  |
| CCCCCCCC/C=C(/CCCCCCCCCCCC(=O)O)[N+](=O)[O-] [compound 17, 13-nitro-cis-13-docosenoic acid] | 0 | + |  |  |  |
| CCCCC/C=C(/C/C=C\C/C=C(/C/C=C\CCCC(=O)O)[N+](=O)[O-])[N+](=O)[O-] [compound 18, 8,14-nitro-cis-5,8,11,14-eicosatetraenoic acid] | + | 0 |  |  |  |
| CCC=CCC=C(CC=CCC=CCC=CCC=C(CCC(=O)O)[N+](=O)[O-])[N+](=O)[O-] [compound 19, 4,16-nitro-docosahexaenoic acid] | + | + |  |  |  |
| CCCCCCCCCCC/C=C(/CCCCC(=O)O)[N+](=O)[O-] [compound 21, 6-nitro-cis-6-octadecenoic acid] | 0 | + |  | + |  |
